{
  "source": "patent US20260256792A1",
  "about": "“TREATMENT OF CHRONIC SPONTANEOUS URTICARIA BY ADMINISTERING (R)-2-[3-[4-AMINO-3-(2-FLUORO-4-PHENOXY-PHENYL)PYRAZOLO[3,4-D]PYRIMIDIN-1-YL]PIPERIDINE-1-CARBONYL]-4-METHYL-4-[4-(OXETAN-3-YL)PIPERAZIN-1-YL]PENT-2-ENENITRILE” (priority 2023, published 2026)",
  "test_system": "moderate-to-severe chronic spontaneous urticaria (CSU)",
  "assay": "Phase 2 CSU study: urticaria activity score over 7 days (UAS7)",
  "format": "in vivo, human",
  "design": "key to UAS7 Median / UAS7 Change from baseline Median / UAS7 change from baseline, Q1 / UAS7 change from baseline, Q3 / UAS7 change from baseline, Max / UAS7 Change from baseline LS Mean (SE): UAS7 points; daily UAS score ranges 0–6 points/day, over 7 days",
  "settings": "for UAS7 change from baseline at Week 12, LS Mean (SE): ANCOVA; for UAS7 Mean (SD) / UAS7 Median: End of Study; for UAS7 % Change difference for rilzabrutinib vs. placebo LS Mean (95% CI) / UAS7 % Change from baseline LS Mean (SE) / UAS7 Change difference for rilzabrutinib vs. placebo LS Mean (95% CI) / UAS7 Change from baseline LS Mean (SE): ITT Population",
  "source_text": "The study comprises a 12 week, randomized, double-blind, placebo-controlled, multi-center, dose-ranging efficacy and safety phase, followed by a 40 week open label extension (OLE) phase (see FIG. 1). The study consists of three phases and an optional OLE phase. […] Clinically, CSU is characterized by the spontaneous and recurrent appearance of pruritic hives. The proposed primary endpoints were the UAS7 at Week 12 in EU and EU reference countries and the ISS7 in the US. Regardless of where a participant was from, all assessments were the same. The UAS7 score is a composite score containing both the HSS7 and the ISS7. This allowed a global assessment of the two key components of urticaria: hives and itch. […] The UAS is a validated PRO measure. […] The daily UAS scores range from 0 to 6 point/day. […] Patients were to complete the UAS using the e-diary. […] The following secondary endpoints were to be analyzed using the same approach as for the primary endpoint: • Change from baseline in UAS7 at Week 4 • Change from baseline in UAS7 at Week 12 (for US and US reference countries) • Change from baseline in ISS7 at Week 12 (except US and US reference countries) • Change from baseline in HSS7 at Week 12 The following responder secondary endpoints were to be analyzed using the Cochran-Mantel-Haenszel test adjusted by region: • Proportion of participants with UAS7<6 at Week 12 • Proportion of participants with UAS7=0 at Week 12 Participants who received selected prohibited medications and/or rescue medications were to be considered as non-responders for time points after the medication usage. For other participants, all available data including those collected during the off-treatment period were to be used to determine the responder/non-responder status. Missing data were to be considered as non-responders.",
  "key": {"[1]": {"settings": "400 mg TID, Omalizumab-Naïve Population (N = 35), double-blind period, last week block of Table 17 (week heading not shown), n observed/imputed 5 (3/2)"}, "[2]": {"settings": "400 mg TID, Patients with Prior Omalizumab Use, Including Omalizumab-Incomplete Responders (N = 6), double-blind period, last week block of Table 17 (week heading not shown), n observed/imputed 2 (0/2)"}, "[3]": {"settings": "400 mg TID, Week 12, omalizumab-naïve"}, "[4]": {"settings": "400 mg TID, omalizumab-naïve population"}, "[5]": {"settings": "400 mg TID, omalizumab-naïve population with outlier removed"}, "[6]": {"settings": "400 mg TID, Prior Omalizumab Use"}},
  "data": [
    {"smiles": "CC(C)(C=C(C#N)C(=O)N1CCC[C@@H](n2nc(-c3ccc(Oc4ccccc4)cc3F)c3c(N)ncnc32)C1)N1CCN(C2COC2)CC1", "note": "[rilzabrutinib, (R)-2-[3-[4-amino-3-(2-fluoro-4-phenoxy-phenyl)pyrazolo[3,4-d]pyrimidin-1-yl]piperidine-1-carbonyl]-4-methyl-4-[4-(oxetan-3-yl)piperazin-1-yl]pent-2-enenitrile]", "values": [
      {"measurement": "UAS7 change from baseline at Week 12, LS Mean Diff vs. placebo (95% CI)", "setting": "400 mg TID, ITT population", "result": "−6.76 (−12.01, −1.51)"},
      {"measurement": "UAS7 change from baseline at Week 12, Mean (SD)", "setting": "400 mg TID, ITT population", "result": "−20.30 (12.41) ^"},
      {"measurement": "UAS7 change from baseline at Week 12, Median", "setting": "400 mg TID, ITT population", "result": "−20.33"},
      {"measurement": "UAS7 change from baseline at Week 12, LS Mean (SE)", "setting": "400 mg TID, ITT population", "result": "−17.95"},
      {"measurement": "UAS7 change from baseline at Week 12, LS Mean (SE)", "setting": "400 mg TID, ITT population, listed as Rilzabrutinib", "result": "−17.95 (1.95)"},
      {"measurement": "decrease from baseline in UAS7", "setting": "400 mg TID, ITT population, belongs to LS mean change −12.72", "result": 40.18, "unit": "%"},
      {"measurement": "LS mean change in UAS7 from baseline to Week 12 (see Table 18)", "setting": "400 mg TID, ITT population, sentence on reductions following one week of treatment", "result": "−12.72"},
      {"measurement": "UAS7 Change from baseline Mean (SD)", "setting": "[1]", "result": "−11.40 (6.62)"},
      {"measurement": "UAS7 Change from baseline Median", "setting": "[1]", "result": "−14.00"},
      {"measurement": "UAS7 Percent change from baseline Mean (SD)", "setting": "[1]", "result": "−38.24 (25.31) %"},
      {"measurement": "UAS7 Percent change from baseline Median", "setting": "[1]", "result": "−45.95", "unit": "%"},
      {"measurement": "UAS7 change from baseline, Max", "setting": "[1]", "result": 0.0},
      {"measurement": "UAS7 change from baseline, Min", "setting": "[1]", "result": "−17.0"},
      {"measurement": "UAS7 change from baseline, Q1", "setting": "[1]", "result": "−14.00"},
      {"measurement": "UAS7 change from baseline, Q3", "setting": "[1]", "result": "−12.00"},
      {"measurement": "UAS7 percent change from baseline, Max", "setting": "[1]", "result": 0.0, "unit": "%"},
      {"measurement": "UAS7 percent change from baseline, Q1", "setting": "[1]", "result": "−50.00", "unit": "%"},
      {"measurement": "UAS7 percent change from baseline, Q3", "setting": "[1]", "result": "−28.57", "unit": "%"},
      {"measurement": "UAS7 Change from baseline Mean (SD)", "setting": "[2]", "result": "−3.50 (4.95)"},
      {"measurement": "UAS7 Change from baseline Median", "setting": "[2]", "result": "−3.50"},
      {"measurement": "UAS7 Percent change from baseline Mean (SD)", "setting": "[2]", "result": "−21.88 (30.94) %"},
      {"measurement": "UAS7 Percent change from baseline Median", "setting": "[2]", "result": "−21.88", "unit": "%"},
      {"measurement": "UAS7 change from baseline, Max", "setting": "[2]", "result": 0.0},
      {"measurement": "UAS7 change from baseline, Min", "setting": "[2]", "result": "−7.0"},
      {"measurement": "UAS7 change from baseline, Q1", "setting": "[2]", "result": "−7.00"},
      {"measurement": "UAS7 change from baseline, Q3", "setting": "[2]", "result": 0.00},
      {"measurement": "UAS7 percent change from baseline, Max", "setting": "[2]", "result": 0.0, "unit": "%"},
      {"measurement": "UAS7 percent change from baseline, Min", "setting": "[2]", "result": "−43.8", "unit": "%"},
      {"measurement": "UAS7 percent change from baseline, Q1", "setting": "[2]", "result": "−43.75", "unit": "%"},
      {"measurement": "UAS7 percent change from baseline, Q3", "setting": "[2]", "result": 0.00, "unit": "%"},
      {"measurement": "participants with UAS7 of 0", "setting": "[3]", "result": 20.0, "unit": "%"},
      {"measurement": "participants with UAS7 of ≤6", "setting": "[3]", "result": 34.3, "unit": "%"},
      {"measurement": "LS mean reduction in UAS7 from baseline to Week 12 (see Table 19)", "setting": "[4]", "result": "−11.44"},
      {"measurement": "UAS7 at Week 12, Mean (SD)", "setting": "[4]", "result": "11.00 (9.90)"},
      {"measurement": "UAS7 at Week 12, Median", "setting": "[4]", "result": 12.25},
      {"measurement": "UAS7 change from baseline at Week 12, LS Mean Diff vs. placebo (95% CI)", "setting": "[4]", "result": "−6.75 (−12.23, −1.26)"},
      {"measurement": "UAS7 change from baseline at Week 12, Mean (SD)", "setting": "[4]", "result": "−19.04 (11.40) ^"},
      {"measurement": "UAS7 change from baseline at Week 12, Median", "setting": "[4]", "result": "−18.92"},
      {"measurement": "UAS7 at Week 12, Mean (SD)", "setting": "[5]", "result": "11.00 (9.90)"},
      {"measurement": "UAS7 at Week 12, Median", "setting": "[5]", "result": 12.25},
      {"measurement": "UAS7 change from baseline at Week 12, LS Mean Diff vs. placebo (95% CI)", "setting": "[5]", "result": "−7.50 (−13.02, −1.97)"},
      {"measurement": "UAS7 change from baseline at Week 12, Mean (SD)", "setting": "[5]", "result": "−19.04 (11.40) ^"},
      {"measurement": "UAS7 change from baseline at Week 12, Median", "setting": "[5]", "result": "−18.92"},
      {"measurement": "UAS7 change from baseline at Week 12, LS Mean (SE)", "setting": "[5]", "result": "−17.50"},
      {"measurement": "UAS7 change from baseline at Week 12, LS Mean (SE)", "setting": "400 mg TID, omalizumab-naïve population with outlier removed, listed as Rilzabrutinib", "result": "−17.50 (2.06)"},
      {"measurement": "UAS7 change from baseline at Week 12, LS Mean (SE)", "setting": "[4]", "result": "−16.89"},
      {"measurement": "UAS7 change from baseline at Week 12, LS Mean (SE)", "setting": "400 mg TID, omalizumab-naïve population, listed as Rilzabrutinib", "result": "−16.89 (2.04)"},
      {"measurement": "UAS7 Mean (SD)", "setting": "400 mg BID, Omalizumab-Naïve", "result": "15.60 (17.52)"},
      {"measurement": "UAS7 Median", "setting": "400 mg BID, Omalizumab-Naïve", "result": 14.00},
      {"measurement": "UAS7 Mean (SD)", "setting": "400 mg QPM, Omalizumab-Naïve", "result": "11.70 (16.82)"},
      {"measurement": "UAS7 Median", "setting": "400 mg QPM, Omalizumab-Naïve", "result": 5.00},
      {"measurement": "UAS7 Mean (SD)", "setting": "400 mg TID, Omalizumab-Naïve", "result": "21.40 (11.74)"},
      {"measurement": "UAS7 Median", "setting": "400 mg TID, Omalizumab-Naïve", "result": 20.00},
      {"measurement": "UAS7 Mean (SD)", "setting": "[6]", "result": "15.58 (9.31)"},
      {"measurement": "UAS7 Median", "setting": "[6]", "result": 15.58},
      {"measurement": "UAS7 % Change difference for rilzabrutinib vs. placebo LS Mean (95% CI)", "setting": "400 mg BID, Week 2", "result": "−17.26", "unit": "%"},
      {"measurement": "UAS7 % Change from baseline LS Mean (SE)", "setting": "400 mg BID, Week 2", "result": "−36.13", "unit": "%"},
      {"measurement": "UAS7 Change difference for rilzabrutinib vs. placebo LS Mean (95% CI)", "setting": "400 mg BID, Week 2", "result": "−4.49"},
      {"measurement": "UAS7 Change from baseline LS Mean (SE)", "setting": "400 mg BID, Week 2", "result": "−10.82"},
      {"measurement": "UAS7 % Change difference for rilzabrutinib vs. placebo LS Mean (95% CI)", "setting": "400 mg QPM, Week 3", "result": "−7.92", "unit": "%"},
      {"measurement": "UAS7 % Change from baseline LS Mean (SE)", "setting": "400 mg QPM, Week 3", "result": "−29.55", "unit": "%"},
      {"measurement": "UAS7 Change difference for rilzabrutinib vs. placebo LS Mean (95% CI)", "setting": "400 mg QPM, Week 3", "result": "−1.91"},
      {"measurement": "UAS7 Change from baseline LS Mean (SE)", "setting": "400 mg QPM, Week 3", "result": "−9.50"},
      {"measurement": "UAS7 % Change difference for rilzabrutinib vs. placebo LS Mean (95% CI)", "setting": "400 mg QPM, Week 5", "result": "−0.72", "unit": "%"},
      {"measurement": "UAS7 % Change from baseline LS Mean (SE)", "setting": "400 mg QPM, Week 5", "result": "−32.52", "unit": "%"},
      {"measurement": "UAS7 Change difference for rilzabrutinib vs. placebo LS Mean (95% CI)", "setting": "400 mg QPM, Week 5", "result": "−0.26"}
    ]}
  ]
}
